Measured values from patent publication US20060025449A1, “Use of N-substituted imino sugars for appetite suppression” (priority 2004, published 2006).

Key:
C57B1/6 mice [1] = assay type: in vivo, mouse
Description: Growth rates of control and NB-DNJ-treated mice were analysed statistically by univariate analysis of variance (ANOVA) using SPSS software to compare slopes of growth from 54 to 174 days of age.
The effect of NB-DNJ on lean body mass growth was also assessed by measuring tibia lengths in a group of 20 control mice at one year old, 5 mice at 2 years old and two mice 19.5 months old after 18 months on 2400 mg/kg/day. Tibias were dissected from both hind-limbs then boiled in distilled water for 20 min to clean the bone of remaining connective tissue and muscle. Tibia length was then measured using calipers.
It can also be seen (FIG. 4) that the control mice lost weight over the first two weeks of treatment and then started to grow again, and continued to gain weight for the remainder of the study. […] Growth in both groups of mice as measured by the gradient of the line is similar and the data were analysed by univariate analysis of variance (ANOVA) to compare the slopes of growth statistically.
To establish further, whether NB-DNJ has an effect on lean growth of mice tibia lengths were measured in a large (n=20) group of control mice at one year of age, a smaller group (n=5) at two years of age and a comparison was made with two mice treated with NB-DNJ for 18 months.

C57B1/6 mice [2] = test: Effect of imino sugars admixed with diet on growth of normal control mice; assay type: in vivo, mouse
Description: Control C57B1/6 and C57BL/6O1aHsd-Lep ob mice were obtained from Harlan, UK at five weeks of age. The mice were housed under standard non-sterile conditions and fed a diet of mouse chow pelleted or expanded ground RM1 diet (SDS Ltd, Witham, Essex) with water available ad libitum. For dietary treatment of the mice with NB-DNJ or NB-DGJ, the diet and compound were admixed thoroughly as dry solids, stored at room temperature and used within 7 days. Unless indicated otherwise, mice were treated with a dose of 2400 mg/kg body weight per day, assuming an intake of around 5 g diet/day. Mice were maintained on diet with or without compound for up to six months of age and were weighed at regular intervals during the course of the experiment (see figure legends for group sizes and further experimental details). To study the effect of compound on obese mice, three groups (n=5) of ob/ob mice were monitored from five weeks of age. One group acted as control and were fed ground RM1 diet. At 6 weeks of age, the second group was started on NB-DNJ in the diet, whilst the third group started drug treatment at 12 weeks of age. All mice were then monitored for up to six months of age. […] In the first week of treatment, mice with NB-DNJ in their diet lost about 10% of their total body mass. Over the course of the following weeks, their weight stabilises. By 5 weeks of treatment they weighed 25% less than the controls. They then started to gain weight. However, after 10 weeks they remained 20% less in mass when compared with the age and sex-matched control group.

ob/ob mice = test: Long-term dietary dosing of obese mice, growth curves; assay type: in vivo, mouse; settings: 2400 mg/kg/d in diet
Description: Control C57B1/6 and C57BL/6O1aHsd-Lep ob mice were obtained from Harlan, UK at five weeks of age. The mice were housed under standard non-sterile conditions and fed a diet of mouse chow pelleted or expanded ground RM1 diet (SDS Ltd, Witham, Essex) with water available ad libitum. For dietary treatment of the mice with NB-DNJ or NB-DGJ, the diet and compound were admixed thoroughly as dry solids, stored at room temperature and used within 7 days. Unless indicated otherwise, mice were treated with a dose of 2400 mg/kg body weight per day, assuming an intake of around 5 g diet/day. Mice were maintained on diet with or without compound for up to six months of age and were weighed at regular intervals during the course of the experiment (see figure legends for group sizes and further experimental details). To study the effect of compound on obese mice, three groups (n=5) of ob/ob mice were monitored from five weeks of age. One group acted as control and were fed ground RM1 diet. […] All mice were then monitored for up to six months of age. Leptin deficient ob/ob mice are widely used as an animal model of obesity and weigh more than twice as much as a normal mouse, even when fed the same diet. The mice have as much as a five-fold increase in fat content, are hyperphagic, hypothermic, have decreased energy expenditure and are unusually efficient at converting metabolic fuels into fat. Friedman & Halas, Nature 395, 763-70 (1998). These mice were used to investigate the effect of NB-DNJ. […] As NB-DNJ was so effective at reducing white adipose tissue in normal mice, a study was performed to discover if a similar effect would occur in obese mice. […] The control obese mice grew from just over 20 g at five weeks old to about 60 g at six months of age whereas the lean controls had reached about 27 g at the same age. The group of obese mice started on NB-DNJ treatment at 7 weeks old grew at a very much reduced rate and weighed 35 g after six months (40% less than their control littermates). […]

control lean mice = test: ICV mini-pump implants, long-term intracerebro-ventricular delivery; assay type: in vivo, mouse
Description: FIG. 11. Control lean mice (n=5 in each group) had icv minipumps (50 mM imino sugar) implanted. Body weight was the monitored at regular intervals over three weeks. See example 7 for further experimental details. The effect of long-term intracerebro-ventricular delivery of imino sugars was determined by the implantation of Alzet mini-osmotic pumps (model 2004, DURECT Corporation, CA, USA) together with the brain infusion kit II which features a high stability low profile cannula. The mini-pumps were loaded with 0.24 ml imino sugar or saline vehicle. The indwelling 28 gauge stainless steel cannula was cut to a length of 2.25 mm. Mice were anaesthetised as for the ICV injections and underwent similar surgical procedures throughout. After drilling a small hole in the cranium at the midline, 2 mm posterior to Bregma, the mini-pump was positioned subcutaneously in the animal's flank and the cannula was implanted. This position and depth ensured delivery to the third cerebral ventricle. The implant was secured to the cranium using VetBond acrylic suture fluid, which was also used to close the surgical wound. The whole procedure lasted less than 9 minutes and mice were fully conscious and recovered within three minutes. For concentration of imino sugar in mini-pumps see figure legends.

C57B1/6 mice [3] = settings: Platt et al.; cited from earlier work
[4] = ICV mini-pump 500 mM, first 24 hours

Compound: CCCCN1C[C@H](O)[C@@H](O)[C@H](O)[C@H]1CO [NB-DNJ, N-butyldeoxynojirimycin]
- weighing less than control counterparts after original weight loss (C57B1/6 mice [1]; 2400 mg/kg/d in diet): 4 g
- lean mass (C57B1/6 mice [1]; admixed with diet, lean mice): did not have any reduction in lean mass
- tibia lengths (C57B1/6 mice [1]; two mice treated for 18 months, 2400 mg/kg/day): within the normal range
- loss of total body mass (C57B1/6 mice [2]; 2400 mg/kg/day in diet from 6 weeks of age, first week of treatment): about 10%
- less in mass compared with age and sex-matched control group (C57B1/6 mice [2]; 2400 mg/kg/day in diet, after 10 weeks): 20%
- weighed less than the controls (C57B1/6 mice [2]; 2400 mg/kg/day in diet, by 5 weeks of treatment): 25%
- body weight of obese mice after six months (ob/ob mice; started at 7 weeks old): 35 g
- weight less than control littermates (ob/ob mice; started at 7 weeks old, after six months): 40%
- weight at which obese mice stabilised after losing weight (ob/ob mice; started at 12 weeks old, over three months): less than 40 g
- reduction in food intake compared to the controls (control lean mice; ICV mini-pump 50 mM, NB-DGJ as control): 6%
- reduction of body weight (control lean mice; ICV mini-pump 50 mM, after 3 weeks): 5%
- effect on dietary intake (control lean mice; [4]): ate even less
- effect on weight change (control lean mice; [4]): lost a little more weight
- dose at which a well-defined effect on total body weight has been seen (C57B1/6 mice [3]): ≥ 600 mg/kg/day
